The values below come from patent US9802918B2, “Pyridineamine compounds useful as Pim kinase inhibitors” (Incyte Corporation, priority 2015, dated 2017).

Common to all, as to format: biochemical
The target of one test is Pim-1 (Homo sapiens (Human), UniProt P11309). Put plainly: Pim-1 kinase assay. The conditions noted are these: 1 mM ATP; read-out: Pim1 IC50. How it is done:
Supplementation of the STOP buffer with beads and stopping the reactions were done under reduced light. Prior to the stopping reactions STOP buffer with beads was preincubated for 1 h in the dark at room temperature. After stopping the reactions, plates were incubated for 1 h in the dark at room temperature before reading on a PHERAstar FS plate reader (BMG Labtech) under reduced light.

For a further test, the target named is Pim-2 (Homo sapiens (Human), UniProt Q9P1W9). Put plainly: Pim-2 kinase assay. The conditions noted are these: 1 mM ATP; read-out: Pim2 IC50. Here is the method:
Pim-2 kinase assay—20 μL reactions were run in white 384 well polystyrene plates dotted with 0.8 μL compound/DMSO in the assay buffer (50 mM Tris, pH 7.5, 0.01% Tween-20, 5 mM mgCl2, 0.01% BSA, 5 mM DTT), containing […] Fluorescein-labeled CREBtide peptide substrate (Invitrogen PV3508), 1 mM ATP, and 1 nM enzyme (Invitrogen PV3649) for 2 h at 25° C. Reactions were stopped by addition of 10 μL TR-FRET Dilution Buffer (Invitrogen PV3574) with 30 mM EDTA and 1.5 nM LanthaScreen Tb-CREB pSer133 antibody (Invitrogen PV3566). After 30 min. incubation at room temperature, plates were read on a PHERAstar FS plate reader (BMG Labtech).

The target in another test is Pim-3 (Homo sapiens (Human), UniProt Q86V86). Nature of the test: Pim-3 kinase assay. The note with it: 1 mM ATP; read-out: Pim3 IC50. How it is done: Pim-1 and Pim-3 kinase assays-20 μL reactions were run in white 384 well polystyrene plates dotted with 0.8 μL compound/DMSO in the assay buffer (50 mM Tris, pH 7.5, 0.01% Tween-20, 5 mM mgCl2, 0.01% BSA, 5 mM DTT), containing […] Biotin-labeled BAD peptide substrate (AnaSpec 62269), 1 mM ATP, and 2.5 pM (Pim-1, Invitrogen PV3503) or 1.25 pM (Pim-3, Millipore 14-738) enzyme for 1 h at 25° C. Reactions were stopped by addition of 10 μL STOP Buffer (150 mM Tris, pH=7.5, 150 mM NaCl, 75 mM EDTA, 0.01% Tween-20, 0.3% BSA,) supplemented with Phospho-Bad (Ser112) Antibody (Cell Signaling 9291) diluted 666-fold, and Streptavidin donor beads (PerkinElmer 6760002) along with Protein-A acceptor beads (PerkinElmer 6760137) at 15 μg/mL each. Supplementation of the STOP buffer with beads and stopping the reactions were done under reduced light. Prior to the stopping reactions STOP buffer with beads was preincubated for 1 h in the dark at room temperature. After stopping the reactions, plates were incubated for 1 h in the dark at room temperature before reading on a PHERAstar FS plate reader (BMG Labtech) under reduced light.

Sequence of Pim-2 (Q9P1W9 whole entry): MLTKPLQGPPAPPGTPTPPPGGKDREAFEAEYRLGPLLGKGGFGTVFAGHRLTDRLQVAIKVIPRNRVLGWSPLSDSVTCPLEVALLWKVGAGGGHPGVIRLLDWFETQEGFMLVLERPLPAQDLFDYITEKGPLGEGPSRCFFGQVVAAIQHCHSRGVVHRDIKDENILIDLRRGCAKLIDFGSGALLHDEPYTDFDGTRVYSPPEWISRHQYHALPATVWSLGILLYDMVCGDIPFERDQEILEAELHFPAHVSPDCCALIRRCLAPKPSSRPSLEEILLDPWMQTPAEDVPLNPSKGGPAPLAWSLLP
Sequence of Pim-1 (P11309 whole entry): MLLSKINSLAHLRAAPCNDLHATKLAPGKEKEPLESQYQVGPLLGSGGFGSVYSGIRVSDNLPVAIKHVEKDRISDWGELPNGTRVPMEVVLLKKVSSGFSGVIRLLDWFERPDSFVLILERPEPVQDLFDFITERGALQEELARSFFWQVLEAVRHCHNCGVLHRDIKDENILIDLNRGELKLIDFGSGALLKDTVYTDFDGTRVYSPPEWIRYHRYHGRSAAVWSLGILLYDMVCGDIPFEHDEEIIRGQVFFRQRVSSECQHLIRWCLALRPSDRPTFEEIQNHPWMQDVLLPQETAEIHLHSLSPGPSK

`C[C@@H]1C[C@H](N)CN(c2ccncc2NCc2ccc(F)c(-c3c(F)cc(CO)cc3F)n2)C1` [Example 36, (4-{6-[({4-[(3S,5R)-3-Amino-5-methylpiperidin-1-yl]pyridin-3-yl}amino)methyl]-3-fluoropyridin-2-yl}-3,5-difluorophenyl)methanol]: the results for the IC50 at Pim-1, at Pim-2 and at Pim-3 were less than 10 nM, no more than 100 nM and no more than 10 nM, respectively.

In the case of `C[C@H]1CN(c2ccncc2NCc2ccc(F)c(-c3c(F)cc4ncccc4c3F)n2)C[C@@H](N)[C@@H]1O` [Example 37, (3R,4R,5S)-3-Amino-1-[3-({[6-(5,7-difluoroquinolin-6-yl)-5-fluoropyridin-2-yl]methyl}amino)pyridin-4-yl]-5-methylpiperidin-4-ol], the IC50 (usually the point on the concentration scale where inhibition reaches its midpoint) on Pim-1 was less than 10 nM; on Pim-2, 100 to 1000 nM; on Pim-3, no more than 10 nM.

On to `C[C@@H]1C[C@H](N)CN(c2ccncc2NCc2ccc(F)c(-c3c(F)cc4ncccc4c3F)n2)C1` [Example 38, 4-[(3S,5R)-3-Amino-5-methylpiperidin-1-yl]-N-{[6-(5,7-difluoroquinolin-6-yl)-5-fluoropyridin-2-yl]methyl}pyridin-3-amine], for which the values for the IC50 at Pim-1, at Pim-2 and at Pim-3 were less than 10 nM, 100 to 1000 nM and no more than 10 nM, respectively.

Consider `C[C@H]1CN(c2ccncc2NCc2ccc(F)c(-c3c(F)cc(CN4CCOCC4)cc3F)n2)C[C@@H](N)[C@@H]1O` [Example 39, (3R,4R,5S)-3-Amino-1-{3-[({6-[2,6-difluoro-4-(morpholin-4-ylmethyl)phenyl]-5-fluoropyridin-2-yl}methyl)amino]pyridin-4-yl}-5-methylpiperidin-4-ol], for which the half-maximal inhibitory concentration (IC50) was less than 10 nM at Pim-1, no more than 100 nM at Pim-2 and no more than 10 nM at Pim-3.

Turning to `CNCc1cc(F)c(-c2nc(CNc3cnccc3N3C[C@@H](N)[C@H](O)[C@@H](C)C3)ccc2F)c(F)c1` [Example 40, (3R,4R,5S)-3-Amino-1-(3-(((6-(2,6-difluoro-4-((methylamino)methyl)phenyl)-5-fluoropyridin-2-yl)methyl)amino)pyridin-4-yl)-5-methylpiperidin-4-ol], the IC50 was less than 10 nM at Pim-1, 100 to 1000 nM on Pim-2 and no more than 10 nM on Pim-3.

Consider `C[C@H]1CN(c2ccncc2NCc2ccc(F)c(-c3c(F)cc(CN4CCC4)cc3F)n2)C[C@@H](N)[C@@H]1O` [Example 41, (3R,4R,5S)-3-Amino-1-(3-(((6-(4-(azetidin-1-ylmethyl)-2,6-difluorophenyl)-5-fluoropyridin-2-yl)methyl)amino)pyridin-4-yl)-5-methylpiperidin-4-ol], for which the IC50 at Pim-1 is less than 10 nM; at Pim-2, 100 to 1000 nM; on Pim-3, no more than 10 nM.

On to `C[C@H]1CN(c2ccncc2NCc2ccc(F)c(-c3c(F)cc(CN4CC[C@@H](O)C4)cc3F)n2)C[C@@H](N)[C@@H]1O` [Example 42, (3R,4R,5S)-3-Amino-1-(3-(((6-(2,6-difluoro-4-(((R)-3-hydroxypyrrolidin-1-yl)methyl)phenyl)-5-fluoropyridin-2-yl)methyl)amino)pyridin-4-yl)-5-methylpiperidin-4-ol], for which the figures for the IC50 on Pim-1, at Pim-2 and at Pim-3 were less than 10 nM, no more than 100 nM and no more than 10 nM, respectively.

With `C[C@H]1CN(c2ccncc2NCc2ccc(F)c(-c3c(F)cc(CN4CC[C@H](O)C4)cc3F)n2)C[C@@H](N)[C@@H]1O` [Example 43, (3R,4R,5S)-3-Amino-1-(3-(((6-(2,6-difluoro-4-(((S)-3-hydroxypyrrolidin-1-yl)methyl)phenyl)-5-fluoropyridin-2-yl)methyl)amino)pyridin-4-yl)-5-methylpiperidin-4-ol], the IC50 was less than 10 nM at Pim-1, no more than 100 nM on Pim-2 and no more than 10 nM at Pim-3.
